Test results as given in patent US12473295B2, “Substituted straight chain spiro derivatives” (Janssen Pharmaceutica NV, priority 2019, dated 2025).
Structures can show the parent of a compound that is named as a salt.

What was measured:
[1] = molecular target: menin/MLL (terbium chelate-labeled menin, FITC-MBM1 peptide) (Homo sapiens (Human), UniProt O00255); assay: Menin/MLL homogenous time-resolved fluorescence (HTRF) assay; type: binding; settings: HTRF-30 min incubation IC50, 30 min incubation;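 note: IC50 from percent inhibition of HTRF signal, normalized between wells without competitor and wells with a saturating competitor that displaces FITC-MBM1 from His-tagged menin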
Chain of menin/MLL (terbium chelate-labeled menin, FITC-MBM1 peptide) (O00255 other isoform, or with tags, fused parts or gaps): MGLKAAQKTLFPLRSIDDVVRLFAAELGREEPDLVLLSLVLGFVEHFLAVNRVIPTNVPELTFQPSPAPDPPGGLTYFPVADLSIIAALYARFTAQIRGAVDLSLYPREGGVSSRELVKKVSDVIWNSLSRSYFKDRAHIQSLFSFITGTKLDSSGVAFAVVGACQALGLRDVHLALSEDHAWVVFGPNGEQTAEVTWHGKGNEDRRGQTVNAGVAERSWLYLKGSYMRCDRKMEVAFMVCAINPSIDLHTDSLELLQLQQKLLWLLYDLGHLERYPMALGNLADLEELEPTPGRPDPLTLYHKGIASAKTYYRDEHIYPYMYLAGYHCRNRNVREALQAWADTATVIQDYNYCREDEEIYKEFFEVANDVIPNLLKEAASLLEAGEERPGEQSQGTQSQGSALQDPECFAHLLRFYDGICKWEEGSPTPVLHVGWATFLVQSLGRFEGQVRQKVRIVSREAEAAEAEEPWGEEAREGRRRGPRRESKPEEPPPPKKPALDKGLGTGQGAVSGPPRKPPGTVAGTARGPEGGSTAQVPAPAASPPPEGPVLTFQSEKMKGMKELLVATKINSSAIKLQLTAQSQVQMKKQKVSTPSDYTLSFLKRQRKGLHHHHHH

[2] = system: MOLM14 cells; assay: Proliferation assay (spheroid growth, 8 days), MOLM14; type: cell-based, human; settings: Homo sapiens, MOLM-14, […], MOLM14, 8 days; read-out: spheroid assay_OneTime MOLM14 IC50;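 note: spheroid size read as confluence by live-cell imaging, compounds added at a range of concentrations with 0.3% DMSO, DMSO-treated wells = 0%, highest reference dose = low control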
[3] = system: OCI-AML3 cells; assay: Proliferation assay (spheroid growth, 8 days), OCI-AML3; type: cell-based, human; settings: Homo sapiens, OCI-AML-3, […], OCI-AML3, 8 days
Protocol: (§1) The anti-proliferative effect of menin/MLL protein/protein interaction inhibitor test compounds was assessed in human leukemia cell lines. The cell line MOLM14 harbors a MLL translocation and expresses the MLL fusion protein MLL-AF9, respectively, as well as the wildtype protein from the second allele. OCI-AML3 cells that carry the NPM1c gene mutation were also tested. […] KO-52 was used as a control cell line containing two MLL (KMT2A) wildtype alleles in order to exclude compounds that display general cytotoxic effects.
(§2) KO-52 and OCI-AML3 cell lines were propagated in alpha-MEM (Sigma Aldrich) supplemented with 20% heat-inactivated fetal bovine serum (HyClone), 2 mM L-glutamine (Sigma Aldrich) and 50 μg/ml gentamycin (Gibco).
(§3) In order to assess the anti-proliferative effects, 200 MOLM14 cells, 200 OCI-AML3 cells or 300 KO-52 cells were seeded in 200 μl media per well in […] round bottom, ultra-low attachment plates (Costar, catalogue number 7007). Cell seeding numbers were chosen based on growth curves to ensure linear growth throughout the experiment. Test compounds were added at different concentrations and the DMSO content was normalized to 0.3%. Cells were incubated for 8 days at 37° C. and 5% CO2. Spheroid like growth was measured in real-time by live-cell imaging (IncuCyteZOOM, Essenbio, 4× objective) acquiring images at day 8. Confluence (%) as a measure of spheroid size was determined using an integrated analysis tool.
(§4) In order to determine the effect of the test compounds over time, the confluence in each well as a measure of spheroid size, was calculated. Confluence of the highest dose of a reference compound was used as baseline for the LC (Low control) and the confluence of DMSO treated cells was used as 0% cytotoxicity (High Control, HC).
(§5) GraphPad Prism(version 7.00) was used to calculate the IC50. Dose-response equation was used for the plot of % Effect vs Log 10 compound concentration with a variable slope and fixing the maximum to 100% and the minimum to 0%.

[4] = system: KO-52 cells; assay: Proliferation assay (spheroid growth, 8 days), KO-52 control cell line; type: cell-based, human; settings: Homo sapiens, […], read-out: spheroid assay_OneTime KO-52 IC50
Protocol: as §1, §2, §3, §4, §5

[5] = system: MEIS1 mRNA; assay: MEIS1 mRNA expression assay (Quantigene Singleplex) in MOLM14 cells; type: cell-based, human; settings: Homo sapiens, MOLM-14, 48 h, 48 hours incubation;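 note: MEIS1 transcript levels read by probe hybridization and normalized to RPL28 mRNA, with IC50 fitted to fold changes across a rising compound concentration series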

Row | IC50 [1] | IC50 [2] | IC50 [3] | IC50 [5] | Compound | IC50 [4]
1 | ~0.16 nM | 16 nM | 190 nM | 15 nM | CCN(C(=O)c1cc(F)ccc1Oc1nncnc1N1CCC2(C1)CN([C@H](C[C@H](O)CN(C)C(C)C)C(C)C)C2)C(C)C (single isomer, unassigned) [Compound 325, N-ethyl-5-fluoro-2-((5-(2-((3*R,5*S)-5-hydroxy-6-(isopropyl(methyl)amino)-2-methylhexan-3-yl)-2,6-diazaspiro[3.4]octan-6-yl)-1,2,4-triazin-6-yl)oxy)-N-isopropylbenzamide fumarate] | > 15000 nM
2 | 0.097 nM | 11 nM | 37 nM | 10 nM | CC(C)[C@@H](C[C@@H](O)CN(C)C)N1CC2(CCN(c3ncnnc3Oc3ccc(F)cc3C(=O)N(C(C)C)C(C)C)C2)C1 (single isomer, unassigned) [Compound 365, 2-((5-(2-((3*R,5*R)-6-(dimethylamino)-5-hydroxy-2-methylhexan-3-yl)-2,6-diazaspiro[3.4]octan-6-yl)-1,2,4-triazin-6-yl)oxy)-5-fluoro-N,N-diisopropylbenzamide fumarate] | > 15000 nM
3 | 0.16 nM | 40 nM | 190 nM | – | CCN(C(=O)c1cc(F)ccc1Oc1nncnc1N1CCC2(C1)CN([C@H](CCCN(CCOC)CCOC)C(C)C)C2)C(C)C [Compound 90, (R)-2-((5-(2-(6-(bis(2-methoxyethyl)amino)-2-methylhexan-3-yl)-2,6-diazaspiro[3.4]octan-6-yl)-1,2,4-triazin-6-yl)oxy)-N-ethyl-5-fluoro-N-isopropylbenzamide formate] | 1000 nM
4 | 4.16 nM | 590 nM | 4690 nM | – | CCN(C(=O)c1cc(F)ccc1Oc1nncnc1N1CCC2(C1)CN([C@H](CCCN(C)CC(C)OC)C(C)C)C2)C(C)C (single isomer, unassigned) [Compound 254, oxalate] | > 15000 nM
5 | – | > 940 nM | 7170 nM | > 1000 nM | CCN(C(=O)c1cc(F)ccc1Oc1nnccc1N1CCC2(C1)CN([C@@H](CCCN(C)CCOC)C(C)C)C2)C(C)C (single isomer, unassigned) [Compound 84, (*S)—N-ethyl-5-fluoro-N-isopropyl-2-((4-(2-(6-((2-methoxyethyl)(methyl)amino)-2-methylhexan-3-yl)-2,6-diazaspiro[3.4]octan-6-yl)pyridazin-3-yl)oxy)benzamide oxalate] | > 15000 nM
6 | – | 110 nM | 330 nM | – | CCN(C(=O)c1cc(F)ccc1Oc1nnc(Cl)nc1N1CCC2(C1)CN([C@H](CCCN(C)CCOC)C(C)C)C2)C(C)C [Compound 394, (R)-2-((3-chloro-5-(2-(6-((2-methoxyethyl)(methyl)amino)-2-methylhexan-3-yl)-2,6-diazaspiro[3.4]octan-6-yl)-1,2,4-triazin-6-yl)oxy)-N-ethyl-5-fluoro-N-isopropylbenzamide fumarate] | > 15000 nM
7 | – | 600 nM | 1360 nM | – | CCN(C(=O)c1cc(F)ccc1Oc1nncnc1N1CCC2(C1)CN([C@@H](CCCN(C)CCOC)C(C)C)C2)C(C)C [Compound 28, (S)—N-ethyl-5-fluoro-N-isopropyl-2-((5-(2-(6-((2-methoxyethyl)(methyl)amino)-2-methylhexan-3-yl)-2,6-diazaspiro[3.4]octan-6-yl)-1,2,4-triazin-6-yl)oxy)benzamide] | > 15000 nM

Row | Compound | IC50 [1] | IC50 [2] | IC50 [3] | IC50 [5] | IC50 [4]
8 | CCN(C(=O)c1cc(F)ccc1Oc1nncnc1N1CCC2(C1)CN([C@H](CCCN(C)CCOC)C(C)C)C2)C(C)C [Compound 27, (R)-N-ethyl-5-fluoro-N-isopropyl-2-((5-(2-(6-((2-methoxyethyl)(methyl)amino)-2-methylhexan-3-yl)-2,6-diazaspiro[3.4]octan-6-yl)-1,2,4-triazin-6-yl)oxy)benzamide] | – | – | 91 nM | – | 6850 nM
